Among the data in patent US20250270213A1, “PI3Ka INHIBITORS” (Synnovation Therapeutics, Inc., priority 2022, published 2025) are IC50 values, retold here.

Bounds are passed on as bounds.

The experiment relates to T47D (PIK3CA H1047R) cells. Briefly: pS473 AKT assay with 2.5% FBS, T47D cells. In kind it is cell-based. Particulars: Homo sapiens, pSer473 AKT, DMEM with 2.5% FBS, 2 h treatment, read-out: T47D_IC50. The method, boiled down:
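T47D (PIK3CA H1047R) cells were switched to DMEM with 2.5% FBS and exposed to compounds for 2 h. After paraformaldehyde fixation, pSer473 AKT was detected by in-cell ELISA (rabbit primary, HRP anti-rabbit secondary, chemiluminescence); IC50 values were fitted from the concentration series.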

Regarding `Cc1cc(C(C)Nc2ccc(Cl)nc2-c2nnco2)c2c(c1)c(=O)n(C)c1c2cnn1C1CCN(C)CC1` (centres unmarked) [Compound 162, 9-[1-[[6-chloro-2-(1,3,4-oxadiazol-2-yl)-3-pyridyl]amino]ethyl]-4,7-dimethyl-3-(1-methyl-4-piperidyl)pyrazolo[3,4-c]isoquinolin-5-one], the IC50 is below 1000 nM.
`CNC(=O)c1ccc(-c2nc(Cl)ccc2NC(C)c2cc(C)cc3c(=O)n(C)c4c(cnn4C4CCN(C)CC4)c23)cn1` (centres unmarked) [Compound 163, 5-[6-chloro-3-[1-[4,7-dimethyl-3-(1-methyl-4-piperidyl)-5-oxo-pyrazolo[3,4-c]isoquinolin-9-yl]ethylamino]-2-pyridyl]-N-methyl-pyridine-2-carboxamide]: the IC50 is below 1000 nM.
For the molecule `Cc1cc(C(C)Nc2ccc(Cl)nc2-c2noc(=O)[nH]2)c2c(c1)c(=O)n(C)c1c2cnn1C1CCN(C)CC1` (centres unmarked) [Compound 164, 3-[6-chloro-3-[1-[4,7-dimethyl-3-(1-methyl-4-piperidyl)-5-oxo-pyrazolo[3,4-c]isoquinolin-9-yl]ethylamino]-2-pyridyl]-4H-1,2,4-oxadiazol-5-one], the IC50 is below 1000 nM.
Under `Cc1cc(C(C)Nc2ccc(Cl)nc2-c2cn(C)nc2C)c2c(c1)c(=O)n(C)c1c2cnn1C1CCN(C)CC1` (centres unmarked) [Compound 165, 9-[1-[[6-chloro-2-(1,3-dimethylpyrazol-4-yl)-3-pyridyl]amino]ethyl]-4,7-dimethyl-3-(1-methyl-4-piperidyl)pyrazolo[3,4-c]isoquinolin-5-one] stands below 1000 nM.
Under `Cc1cc(C(C)Nc2ccc(Cl)nc2-c2ccc(=O)n(C)c2)c2c(c1)c(=O)n(C)c1c2cnn1C1CCN(C)CC1` (centres unmarked) [Compound 166, 9-[1-[[6-chloro-2-(1-methyl-6-oxo-3-pyridyl)-3-pyridyl]amino]ethyl]-4,7-dimethyl-3-(1-methyl-4-piperidyl)pyrazolo[3,4-c]isoquinolin-5-one] stands below 1000 nM; under `Cc1cc(C(C)Nc2ccc(Cl)nc2N2CCC(O)CC2)c2c(c1)c(=O)n(C)c1c2cnn1C1CCN(C)CC1` (centres unmarked) [Compound 167, 9-[1-[[6-chloro-2-(4-hydroxy-1-piperidyl)-3-pyridyl]amino]ethyl]-4,7-dimethyl-3-(1-methyl-4-piperidyl)pyrazolo[3,4-c]isoquinolin-5-one], below 1000 nM.
Next, `Cc1cc(C(C)Nc2ccc(Cl)nc2-c2ccncc2F)c2c(c1)c(=O)n(C)c1c2cnn1C1CCN(C)CC1` (centres unmarked) [Compound 168, 9-[1-[[6-chloro-2-(3-fluoro-4-pyridyl)-3-pyridyl]amino]ethyl]-4,7-dimethyl-3-(1-methyl-4-piperidyl)pyrazolo[3,4-c]isoquinolin-5-one]: below 1000 nM.
On to `Cc1cc(C(C)Nc2ccc(Cl)nc2-c2cccnc2)c2c(c1)c(=O)n(C)c1c2cnn1C1CCN(C)CC1` (centres unmarked) [Compound 169, 9-[1-[[6-chloro-2-(3-pyridyl)-3-pyridyl]amino]ethyl]-4,7-dimethyl-3-(1-methyl-4-piperidyl)pyrazolo[3,4-c]isoquinolin-5-one], for which the IC50 was below 1000 nM.
Under `CNC(=O)c1ccc(-c2nc(C)ccc2NC(C)c2cc(C)cc3c(=O)n(C)c4c(cnn4C4CCN(C)CC4)c23)cn1` (centres unmarked) [Compound 170] stands below 1000 nM; under `Cc1cc(C(C)Nc2ccc(Cl)nc2-c2ccn(C)c(=O)c2)c2c(c1)c(=O)n(C)c1c2cnn1C1CCN(C)CC1` (centres unmarked) [Compound 171, 9-[1-[[6-chloro-2-(1-methyl-2-oxo-4-pyridyl)-3-pyridyl]amino]ethyl]-4,7-dimethyl-3-(1-methyl-4-piperidyl)pyrazolo[3,4-c]isoquinolin-5-one], below 1000 nM.
Regarding `Cc1cc(C(C)Nc2ccc(Cl)nc2-c2cnn(C)c2)c2c(c1)c(=O)n(C)c1c2cnn1C1CCN(CC(C)(C)O)CC1` (centres unmarked) [Compound 172, 9-[1-[[6-Chloro-2-(1-methylpyrazol-4-yl)-3-pyridyl]amino]ethyl]-3-[1-(2-hydroxy-2-methyl-propyl)-4-piperidyl]-4,7-dimethyl-pyrazolo[3,4-c]isoquinolin-5-one], the IC50 was below 1000 nM.
